These results are taken from patent US8624027B2, “Combination therapy for treating cancer and diagnostic assays for use therein” (AbbVie Inc., priority 2005, dated 2014).

Data set [1] has as its system NCI-H146 human small cell lung carcinoma cells. As to the kind of experiment: Cellular efficacy in human tumor cell line (MTS viability assay). It counts as cell-based. The following applies: 10% human serum, 48 hours. How it is done: NCI-H146 (ATCC, Manassas, Va.) human small cell lung carcinoma cells were plated 50,000 cells per well in 96-well tissue culture plates in a total volume of 100 μL tissue culture medium supplemented with 10% human serum (Invitrogen, Carlsbad, Calif.) instead of fetal bovine serum and treated with a 2-fold serial dilution of the compounds of interest from 10 μM to 0.020 μM. Each concentration was tested in duplicate at least 3 separate times. The number of viable cells following 48 hours of compound treatment was determined using the CellTiter 96® AQueous non-radioactive cell proliferation MTS assay according to manufacturer's recommendations (Promega Corp., Madison, Wis.).

A short description of data set [2]: Pharmacokinetic evaluation in rat. The settings on record: male, Sprague-Dawley, plasma; for AUC / Cmax: 5 mg/kg, oral; for AUC(0-inf): single 5 mg/kg oral dose, Table 1, read-out: Pharmacokinetic area under the plasma concentration Curve (rat) AUC0-∞. It counts as in vivo. How it is done: The pharmacokinetic behavior of compounds of this disclosure was determined following a single 2 mg/kg intravenous or 5 mg/kg oral dose in male Sprague-Dawley derived rats (n=3 per group). The compounds were prepared as 2 mg/mL solution in a 10% DMSO in PEG-400 formulation for both oral and intravenous administration. The 1 mL/kg intravenous dose was administered as a slow bolus (about 1-2 minutes) in the jugular vein of a rat under light ether anesthetic. The oral dose was administered by gavage. Serial blood samples were obtained from a tail vein of each rat prior 0.1 (IV only), 0.25, 0.5, 1, 1.5, 2, 3, 4, 6, 8 and 24 hours after dosing. The heparinized samples were thoroughly mixed and placed in an ice bath. Plasma was separated by centrifugation and stored frozen prior to analysis.
The compounds of interest were separated from the plasma using protein precipitation with acetonitrile. A plasma (100-200 μL, sample or spiked standard) aliquot was combined with 50 μL of internal standard (structurally related analog prepared in acetonitrile) and 1 ml acetonitrile in a 96-well polypropylene deep well plate. The plates were vortexed for 30 seconds followed by centrifugation (3500 rpm×15 minutes, 4° C.). In an automated manner, the supernatant was transferred to a clean 96-well plate. The samples were evaporated to near dryness on a Micro-Vap™ under a stream of dry nitrogen over low heat (˜37° C.). The samples were reconstituted vortexing with 0.2 mL 5% DMSO in acetonitrile. A 0.1-0.2 ml aliquot of acetonitrile: 0.1% trifluoroacetic acid (20:80, by volume) was added to each well, followed by an additional 30 second vortexing. The plates were centrifuged (3500 rpm×15 minutes, 4° C.) prior to HPLC-MS/MS analysis. Samples were analyzed simultaneously with spiked plasma standards. All samples from each study were analyzed as a single batch on the LC-MS/MS.
The compounds of interest and the internal standard were separated from each other and co-extracted contaminants on a 50×3 mm Keystone Betasil CN 5 μm column with an acetonitrile: 0.1% trifluoroacetic acid mobile phase (50:50, by volume) at a flow rate of 0.7 ml/min. Analysis was performed on a Sciex API 300™ Biomolecular Mass Analyzer using a heated nebulizer interface. Peak areas of the title compounds and internal standards were determined using the Sciex MacQuan™ software. Calibration curves were derived from peak area ratio (parent drug/internal standard) of the spiked rat plasma standards using least squares linear regression of the ratio versus the theoretical concentration. The methods were generally linear over the range of the standard curve (correlation coefficients >0.99) with an estimated quantitation limit of 0.01 μg/mL. The plasma concentration data for each animal were submitted to multi-exponential curve fitting using WinNonlin. The area under the plasma concentration-time curve from 0 to t hours (time of the last measurable plasma concentration) after dosing (AUC0-t) was calculated using the linear trapezoidal rule for the plasma concentration-time profiles. The residual area extrapolated to infinity, determined as the final measured plasma concentration (Ct) divided by the terminal elimination rate constant (β), was added to AUC0-t to produce the total area under the curve (AUC0-∞). Ki values shown in the tables below were determined using Wang's equation (Wang Z X., An Exact Mathematical Expression For Describing Competitive Binding Of Two Different Ligands To A Protein Molecule. FEBS Lett. 1995; 360:111-4)).

Data set [3] has as its target Bcl-XL protein (Homo sapiens, UniProt Q07817). As to the kind of experiment: Bcl-XL binding affinity, fluorescence polarization with fluorescein-labeled BAD peptide. The following applies: Wang's equation, read-out: Target Binding Affinity Ki (Bcl-XL). For orientation: In fluorescence polarisation assays a small probe gives low polarisation when free and higher when bound to something large.
Procedure: A mixture comprising 125 μL per well of assay buffer (20 mM phosphate buffer (pH 7.4), 1 mM EDTA, 50 mM NaCl, 0.05% PF-68), 6 nM of Bcl-XL protein (prepared as described in Science 1997, 275, 983-986), 1 nM fluorescein-labeled BAD peptide (prepared in-house) and the DMSO solution of the compound was shaken for 2 minutes and placed in a LJL Analyst (LJL Bio Systems, CA). A negative control (DMSO, 15 nM BAD peptide, assay buffer) and a positive control (DMSO, 1 nM BAD peptide, 6 nM Bcl-XL, assay buffer) were used to determine the range of the assay. Polarization was measured at room temperature using a continuous Fluorescein lamp (excitation 485 nm, emission 530 nm). Percentage of inhibition was determined by (1-((mP value of well-negative control)/range))×100%.

Data set [4] concerns the target T1, Bcl-2 protein (Homo sapiens, UniProt P10415, DELINS35-91DVEENRTEAPEGTESE, form not given).
T1 construct: fused on or other part: A short piece of the Bcl-xL (Q07817) loop replaces Bcl-2 loop residues 35-91; The C-terminal membrane anchor is absent
As to the kind of experiment: Bcl-2 binding affinity, fluorescence polarization with fluorescein-labeled BAX peptide. The following applies: Wang's equation, read-out: Target Binding Affinity Ki (Bcl-2).

Where [5] appears, read: Table 2, read-out: Pharmacokinetic area under the plasma concentration curve (rat) AUC.
The mark [6] stands for this setting: Table 2, read-out: Pharmacokinetic peak plasma concentration (rat) Cmax.
The mark [7] stands for this setting: NCI-H146, Table 2, read-out: NCI-H146 Cellular Efficacy H146, EC50.
The mark [8] stands for this setting: NCI-H146, Table 1, read-out: NCI-H146 Cellular Efficacy EC50.
The mark [9] stands for this setting: Table 3, read-out: Pharmacokinetic area under the plasma concentration Curve (rat) AUC.
Where [10] appears, read: Table 3, read-out: Pharmacokinetic peak plasma concentration (rat) Cmax.
Setting [11] is: NCI-H146, Table 3, read-out: NCI-H146 Cellular Efficacy H146 EC50.

pEC50, pKi: −log10 of the molar value. Like-named read-outs stand apart in the source and are kept apart here. A value given as a limit tells only on which side of the number the result lay.

Chain of Bcl-XL protein (Q07817 with tags, fused parts or gaps DEL45-84): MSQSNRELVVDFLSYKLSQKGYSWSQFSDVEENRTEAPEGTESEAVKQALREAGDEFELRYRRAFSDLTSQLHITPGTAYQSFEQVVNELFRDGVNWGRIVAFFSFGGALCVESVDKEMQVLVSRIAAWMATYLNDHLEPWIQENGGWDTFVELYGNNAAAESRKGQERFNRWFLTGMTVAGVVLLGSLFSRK
T1 sequence (P10415 with tags, fused parts or gaps with the stated changes): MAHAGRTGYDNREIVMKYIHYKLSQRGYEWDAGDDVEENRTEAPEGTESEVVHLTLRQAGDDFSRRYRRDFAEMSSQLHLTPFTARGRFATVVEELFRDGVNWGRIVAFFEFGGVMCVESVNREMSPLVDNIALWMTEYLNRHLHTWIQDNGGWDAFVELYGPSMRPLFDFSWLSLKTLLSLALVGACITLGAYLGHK

Usually pEC50 stands for −log10 of the EC50, conventionally taken in molar units. As to “3-((chloro(difluoro)methyl)sulfonyl)-N-(4-(4-((2-(4-chlorophenyl)-4,4-dimethylcyclohex-1-en-1-yl)methyl)piperazin-1-yl)benzoyl)-4-(((1R)-3-(dimethylamino)-1-((phenylsulfanyl)methyl)propyl)amino)benzenesulfonamide [Example 28]”, the negative-log EC50 (pEC50) in data set [1] (Table 1, read-out: NCI-H146 Cellular Efficacy EC50) was 7.62.
For `CN(C)CC[C@H](CSc1ccccc1)Nc1ccc(S(=O)(=O)NC(=O)c2ccc(N3CCN(Cc4ccccc4-c4ccc(Cl)cc4)CC3)cc2)cc1C(F)(F)F` [A, reference compound], the AUC in data set [2] (setting [5]) turned out to be 4.41 µM·h. Further, the Cmax in data set [2] (setting [6]) amounted to 371 nM. In data set [1] (setting [7]), the pEC50 was 5.80.
On the same counts, the results for `CN(C)CC[C@H](CSc1ccccc1)Nc1ccc(S(=O)(=O)NC(=O)c2ccc(N3CCN(Cc4ccccc4-c4ccc(Cl)cc4)CC3)cc2)cc1[N+](=O)[O-]` [B, reference compound] are 0.283 µM·h, 39 nM and 7.20.
On the same counts, the results for `CN(C)CC[C@H](CSc1ccccc1)Nc1ccc(S(=O)(=O)NC(=O)c2ccc(N3CCN(Cc4ccccc4-c4ccc(Cl)cc4)CC3)cc2)cc1C#N` [C, reference compound] are 1.92 µM·h, 315 nM and 5.74.
The matching figures for `CN(C)CC[C@H](CSc1ccccc1)Nc1ccc(S(=O)(=O)NC(=O)c2ccc(N3CCN(Cc4ccccc4-c4ccc(Cl)cc4)CC3)cc2)c(F)c1C(F)(F)F` [D, reference compound]: 3.83 µM·h, 386 nM and 5.13.
As a reminder, the pKi is −log10 of the Ki, conventionally taken in molar units. In the case of `CC1(C)CCC(CN2CCN(c3ccc(C(=O)NS(=O)(=O)c4ccc(N[C@H](CCN5CCOCC5)CSc5ccccc5)c(S(=O)(=O)C(F)(F)Cl)c4)cc3)CC2)=C(c2ccc(Cl)cc2)C1` [Example 2, 3-((chloro(difluoro)methyl)sulfonyl)-N-(4-(4-((2-(4-chlorophenyl)-4,4-dimethylcyclohex-1-en-1-yl)methyl)piperazin-1-yl)benzoyl)-4-(((1R)-3-(morpholin-4-yl)-1-((phenylsulfanyl)methyl)propyl)amino)benzenesulfonamide], the pKi in data set [3] and in data set [4] was at least 9.00 each time. In data set [2], the AUC(0-inf) was 7.01 µM·h. Also, the pEC50 in data set [1] (setting [8]) is 7.54.
For `O=C(NS(=O)(=O)c1ccc(N[C@H](CCN2CCOCC2)CSc2ccccc2)c(S(=O)(=O)C(F)(F)Cl)c1)c1ccc(N2CCN(CC3=C(c4ccc(Cl)cc4)CCCC3)CC2)cc1` [Example 3, 3-((chloro(difluoro)methyl)sulfonyl)-N-(4-(4-((2-(4-chlorophenyl)-1-cyclohex-1-en-1-yl)methyl)piperazin-1-yl)benzoyl)-4-(((1R)-3-(morpholin-4-yl)-1-((phenylsulfanyl)methyl)propyl)amino)benzenesulfonamide], the pKi in data set [3] and in data set [4] was at least 9.00 in each case. In data set [2] (setting [9]), the AUC came out at 4.13 µM·h. The Cmax in data set [2] (setting [10]) turned out to be 385 nM. The AUC(0-inf) in data set [2] was found to be 4.13 µM·h. The pEC50 in data set [1] (setting [8]) and in data set [1] (setting [11]) was 7.54 in each case.
For `CC(C)N(C)CC[C@H](CSc1ccccc1)Nc1ccc(S(=O)(=O)NC(=O)c2ccc(N3CCN(CC4=C(c5ccc(Cl)cc5)CCC(C)(C)C4)CC3)cc2)cc1S(=O)(=O)C(F)(F)F` [Example 4, N-(4-(4-((2-(4-chlorophenyl)-5,5-dimethylcyclohex-1-en-1-yl)methyl)piperazin-1-yl)benzoyl)-4-(((1R)-3-(isopropyl(methyl)amino)-1-((phenylsulfanyl)methyl)propyl)amino)-3-((trifluoromethyl)sulfonyl)benzenesulfonamide], the pKi in data set [3] and in data set [4] was at least 9.00 in each case. Also, in data set [2], the AUC(0-inf) came to 6.34 µM·h. Further, the pEC50 in data set [1] (setting [8]) was 7.23.
For the compound `CC(C)N(C)CC[C@H](CSc1ccccc1)Nc1ccc(S(=O)(=O)NC(=O)c2ccc(N3CCN(CC4=C(c5ccc(Cl)cc5)CCCCC4)CC3)cc2)cc1S(=O)(=O)C(F)(F)F` [Example 5, N-(4-(4-((2-(4-chlorophenyl)-1-cyclohepten-1-yl)methyl)piperazin-1-yl)benzoyl)-4-(((1R)-3-(isopropyl(methyl)amino)-1-((phenylsulfanyl)methyl)propyl)amino)-3-((trifluoromethyl)sulfonyl)benzenesulfonamide], the negative logarithm of the Ki (pKi) in data set [3] and in data set [4] was at least 9.00 throughout. In addition, the AUC(0-inf) in data set [2] worked out at 2.22 µM·h. For the same compound, in data set [1] (setting [8]), the pEC50 was 7.41.
Regarding `O=C(NS(=O)(=O)c1ccc(N[C@H](CCN2C[C@@H]3C[C@H]2CO3)CSc2ccccc2)c(S(=O)(=O)C(F)(F)Cl)c1)c1ccc(N2CCN(CC3=C(c4ccc(Cl)cc4)CCCC3)CC2)cc1` [Example 6, 3-((chloro(difluoro)methyl)sulfonyl)-N-(4-(4-((2-(4-chlorophenyl)cyclohex-1-en-1-yl)methyl)piperazin-1-yl)benzoyl)-4-(((1R)-3-((1S,4S)-2-oxa-5-azabicyclo[2.2.1]hept-5-yl)-1-((phenylsulfanyl)methyl)propyl)amino)benzenesulfonamide], the negative-log Ki (pKi) in data set [3] and in data set [4] was at least 9.00 throughout. The AUC in data set [2] (setting [9]) was determined as 0.913 µM·h. Also, the Cmax in data set [2] (setting [10]) stood at 113 nM. The AUC(0-inf) in data set [2] was found to be 0.91 µM·h. Moreover, the negative logarithm of the EC50 (pEC50) was 9.00 in data set [1] (setting [8]) and 8.00 in data set [1] (setting [11]).
As for `CN(C)CC[C@H](CSc1ccccc1)Nc1ccc(S(=O)(=O)NC(=O)c2ccc(N3CCN(CC4=C(c5ccc(Cl)cc5)CC(C)(C)CC4)CC3)cc2)cc1S(=O)(=O)C(F)(F)Cl` [Example 28, 3-((chloro(difluoro)methyl)sulfonyl)-N-(4-(4-((2-(4-chlorophenyl)-4,4-dimethylcyclohex-1-en-1-yl)methyl)piperazin-1-yl)benzoyl)-4-(((1R)-3-(dimethylamino)-1-((phenylsulfanyl)methyl)propyl)amino)benzenesulfonamide], the pKi in data set [3] and in data set [4] was at least 9.00 throughout.
For `CN(C)CC[C@H](CSc1ccccc1)Nc1ccc(S(=O)(=O)NC(=O)c2ccc(N3CCN(CC4=C(c5ccc(Cl)cc5)CCCC4)CC3)cc2)cc1[N+](=O)[O-]` [G, reference compound], the AUC in data set [2] (setting [9]) was found to be 0.507 µM·h. For the same compound, the Cmax in data set [2] (setting [10]) came to 57 nM. In data set [1] (setting [11]), the pEC50 was 7.59.
For `CN(C)CC[C@H](CSc1ccccc1)Nc1ccc(S(=O)(=O)NC(=O)c2ccc(N3CCN(CC4=C(c5ccc(Cl)cc5)CCCC4)CC3)cc2)cc1C(F)(F)F` [H, reference compound], the AUC in data set [2] (setting [9]) amounted to 1.97 µM·h. The Cmax in data set [2] (setting [10]) was determined as 215 nM. Besides, the negative-log EC50 (pEC50) in data set [1] (setting [11]) is 6.39.
